Format in all cases: in vivo
Assay [1] deals with BALB/cJRj mice. The assay can be described thus: Elevated plus maze (EPM), acute anxiolytic-like effect. As for the experimental part: RS67333 (1.5 mg/kg, i.p.), diazepam (1.5 mg/kg, i.p.), fluoxetine (18 mg/kg, i.p.) were injected 45 min before testing in the Elevated Plus Maze (EPM), the Novelty Suppressed Feeding (NSF) or the Open Field (OF) in three independent cohorts of male BALB/cJRj mice.
To ensure the selectivity of the anxiolytic-like effects of RS67333, in a new cohort of male BALB/cJRj mice, GR125487 (1.0 mg/kg, i.p.) dissolved in 0.9% NaCl solution, was injected 15 minutes before RS67333 administration (1.5 mg/kg, i.p.). EPM or NSF occurred 45 min after RS67333 administration (A-S1). Behavioral consequences of the co-administration of GR125487+RS67333 were compared to RS67333 alone, diazepam (1.5 mg/kg, i.p.) fluoxetine (18 mg/kg, i.p.) and vehicle groups (0.9% saline solution, i.p.).
For mPFC drug infusion, two bilateral cannulae (75 μm-diameter silica capillary tubing inserted in 27G stainless steel catheter) were implanted in the mPFC [stereotaxic coordinates in mm from bregma: A=+2.10, L=±0.50, V=−2.60, A, anterior; L, lateral; and V, ventral, according to (A-S10)] under anesthesia (chloral hydrate, 400 mg/kg, i.p.). […] Diazepam (1.5 mg/kg) was used as a positive control.
In a new cohort of male BALB/cJRj mice, p-CPA was administered twice daily (at 0900 and 1700 h) for 3 consecutive days. RS67333 ([…]) and diazepam ([…]) were then intra-mPFC administered 24 h after the final p-CPA administration and behavioral test (EPM) occurred 45 minutes after local infusion.
The EPM is a widely used behavioral assay for rodents and it has been validated to assess the anti-anxiety effects of pharmacological agents (A-S11). This test was performed as described by (A-S1). The maze is a plus-cross-shaped apparatus, with two open arms and two arms closed by walls linked by a central platform 50 cm above the floor. Mice were individually put in the center of the maze facing an open arm and were allowed to explore the maze during 5 min for the behavioral consequences of an acute systemic administration or mPFC infusion and during 6 min for the optogenetic experiments. The time spent in and the numbers of entries into the open arms were used as an anxiety index. All parameters were measured using a videotracker (EPM3C, Bioseb, Vitrolles, France).

The test system of assay [2] is BALB/cJRj mice. The assay can be described thus: OF with optogenetic inhibition of mPFC terminals in the DRN (CaMKII-ArchT). As to conditions: intra-mPFC RS67333 0.5 pg/side or diazepam 1.5 pg/side; for inhibition of the drug-induced increase in center time (OF) during 3-min green light illumination: light ON. From the text:
Motor activity was quantified in four 39×39 cm perpex plastic open field boxes (Vivo-tech/Ugo Basile, Salon de Provence, France). The apparatus was illuminated from the ground with special designed 40×40 cm Infra-red backlights (monochromatic wavelength 850 nm high homogeneity, Vivo-tech, Salon de Provence, France). Activity chambers were monitored by four black and white cameras with varifocal optics and polarizing filters (Vivo-tech, Salon de Provence, France). For optogenetic experiments, optical bandpass filters were specifically selected to improve tracking detection. The whole set-up was controlled using ANYMAZE version 6 video tracking software (Stoelting Co/Vivo-tech, Salon de Provence, France). Dependent measures were time in the center over a 10 min for systemic administration or 6 min test period for optogenetic experiments, total ambulatory distance and ambulatory distance traveled in the center divided by total distance.
To target opsin expression selectively to cortical glutamatergic terminals in the DRN, AAV5-CaMKIIα-ChR2-enhanced yellow fluorescent protein (eYFP), AAV5-CaMKII-ArchT-green fluorescent protein (GFP) or AAV5-CaMKII-eYFP, obtained from Karl Deisseroth and Ed Boyden (UNC Vector Core, NC, USA) were bilaterally injected into the mPFC (in mm from bregma, A=+2.10, L=±0.50, V=−2.60). Mice injected with AAV5-CamKII-eYFP were used as control.
BALB/cJRj mice were surgically implanted with fiber optics targeted to the DRN (in mm from bregma, A=−4.50, L=+1.20, V=−4.0, angle 15°). A […] core, 0.37 NA fiber optic (ThorLabs, ˜10-12 and 15-16 mW for ChR2 and Arch-T, respectively, at the tip of optic) was used for optical stimulation via a patch cable connected to either a 473 or 532 nm laser diode (OEM laser systems, USA) as previously described (A-S15). For behavioral experiments, AAV5-CaMKIIα-ChR2-eYFP mice and their controls received a 10 Hz stimulation, 20 ms pulses, over a 3-minute period whereas a green light was delivered continuously to AAV5-CaMKII-ArchT-GFP throughout the 3 min testing period. Similar doses of RS67333 (locally in the mPFC at […] or at 1.5 mg/kg, i.p.) and diazepam (locally in the mPFC at […] or at 1.5 mg/kg, i.p.) were infused in the mPFC or administered i.p. The stimulation or the inhibition of mPFC projections in the DRN occurred simultaneously to the behavioral paradigms.

Assay [3] deals with BALB/cJRj mice. The assay can be described thus: Splash Test after single dose. Particulars: single systemic dose 1.5 mg/kg, 45 minutes before test. The method, then: Having shown that RS 67333 was provided with prophylactic properties, we subsequently sought to gain knowledge of this molecule in the long term, i.e. to find out whether the anxiolytic response brought about by RS 67333 is sustainable over time. In order to achieve this, the BALB/cJRj mice were systemically injected with a single dose of RS 67333 (1.5 mg/kg) or diazepam (1.5 mg/kg), 45 minutes before performing the Splash Test. The following day, the mice underwent the EPM without having received another dose of RS, and then at the open field 24 hours later, and, finally, to NSF 24 hours after the open field (FIG. 15A).

The text below walks through data of patent publication US20220031684A1, “PROPHYLACTIC EFFICACY OF SEROTONIN 4 RECEPTOR AGONISTS AGAINST STRESS” (THE TRUSTEES OF COLUMBIA UNIVERSITY IN THE CITY OF NEW YORK, priority 2019, published 2022).

Where a name gives a salt, the structure may show the parent alone.

Regarding `CN1C(=O)CN=C(c2ccccc2)c2cc(Cl)ccc21` [diazepam, Diazepam hydrochloride], the “ratio of ambulatory distance in the open arms divided by total distance (EPM) vs vehicle” value in assay [1] (i.p. 45 min before testing, RS67333 1.5 mg/kg, diazepam 1.5 mg/kg) is on record as “significantly increased”. In assay [1] (intra-mPFC infusion 45 min before testing, RS67333 0.5 pg/side (1 pg), diazepam 1.5 pg/side), the “time and percent time spent in the open arms (EPM) vs vehicle” value (from here on “time and percent time spent”) is on record as “increased time, percent time spent in the open arms”. Also, the “time and percent time spent” value in assay [1] (male BALB/cJRj, i.p. 45 min before testing, RS67333 1.5 mg/kg, diazepam 1.5 mg/kg, hydrochloride) is “significantly increased time and percent time spent in the open arms”. Also, the “drug-induced increase in time, percent time in open arms and ratio open arms/total distance (EPM) in 5-HT-depleted p-CPA mice” value in assay [1] (p-CPA pre-treatment 3 days, intra-mPFC RS67333 0.5 pg/side or diazepam 1.5 pg/side) is on record as “abolished”. In assay [2], the “time spent in the center (OF), light OFF” value is listed as “increased significantly the time spent in the center” and the “inhibition of the drug-induced increase in center time (OF) during 3-min green light illumination” value came to 80±22%. Also, the “grooming time (Splash Test)” value in assay [3] is reported as “not identify any effect in the Splash Test”.

As to `CCCCN1CCC(CCC(=O)c2cc(Cl)c(N)cc2OC)CC1.Cl` [RS-67,333, 1-(4-amino-5-chloro-2-methoxyphenyl)-3-[1(n-butyl)-4-piperidinyl]-1-propanone HCl], in assay [1] (intra-mPFC infusion 45 min before testing, RS67333 0.5 pg/side (1 pg), diazepam 1.5 pg/side, HCl), the “time and percent time spent” value was “significantly increased time and percent time spent in the open arms”. For the same compound, the “time and percent time spent” value in assay [1] (male BALB/cJRj, i.p. 45 min before testing, RS67333 1.5 mg/kg, diazepam 1.5 mg/kg) is “increased”. Further, in assay [2], the “time spent in the center (OF), light OFF” value is on record as “increased significantly the time spent in the center” and the “inhibition of the drug-induced increase in center time (OF) during 3-min green light illumination” value turned out to be 85±20%. In assay [3], the “grooming time (Splash Test)” value is “increased the grooming time” and the “number of grooming episodes (Splash Test)” value is reported as “without affecting the number of episodes”.
